In PubChem BioAssay (NCI):
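Grown in 96-well plates, cells were treated for 48 hours with each compound at five concentrations. Insufficient inhibition: endpoint recorded as highest concentration tested. The concentration for 50% growth inhibition is given as GI50. TGI marks complete inhibition of growth.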 Where a SMILES comes first, the peptide text is derived from it. [ ]: non-standard residue; d: D form.

Columns and labels:
Assay in all cases: DTP human tumour cell line panel, 48 h
A498 renal = tested on: A498 renal
A549 NSCLC = tested on: A549 NSCLC
CAKI-1 renal = tested on: CAKI-1 renal
MALME-3M melanoma = tested on: MALME-3M melanoma
OVCAR-3 ovarian = tested on: OVCAR-3 ovarian
RPMI-8226 leukemia = tested on: RPMI-8226 leukemia
SK-MEL-28 melanoma = tested on: SK-MEL-28 melanoma
BT-549 breast = tested on: BT-549 breast
MCF7 breast = tested on: MCF7 breast
MDA-MB-231 breast = tested on: MDA-MB-231 breast

| Structure (SMILES) | TGI (A498 renal) | TGI (A549 NSCLC) | TGI (CAKI-1 renal) | TGI (MALME-3M melanoma) | TGI (OVCAR-3 ovarian) | TGI (RPMI-8226 leukemia) | TGI (SK-MEL-28 melanoma) | GI50 (A498 renal) | GI50 (A549 NSCLC) | GI50 (BT-549 breast) | TGI (BT-549 breast) | GI50 (CAKI-1 renal) | GI50 (MCF7 breast) | TGI (MCF7 breast) | GI50 (MDA-MB-231 breast) | TGI (MDA-MB-231 breast) | GI50 (OVCAR-3 ovarian) | GI50 (RPMI-8226 leukemia) | GI50 (SK-MEL-28 melanoma) | GI50 (MALME-3M melanoma) |
| --- | --- | --- | --- | --- | --- | --- | --- | --- | --- | --- | --- | --- | --- | --- | --- | --- | --- | --- | --- | --- |
| O=C(CCc1cc(-c2ccc(F)cc2)n[nH]1)N(Cc1ccccc1)Cc1ccccc1 | > 100 µM | > 100 µM | > 100 µM | > 100 µM | > 100 µM | > 100 µM | > 100 µM |  |  |  |  |  |  |  |  |  |  |  |  |  |
| COc1cc(CCc2ccncc2)cc(OC)c1OC | > 100 µM | > 100 µM | > 100 µM | > 100 µM | > 100 µM | > 100 µM | > 100 µM |  |  |  |  |  |  |  |  |  |  |  |  |  |
| O=C1C(=Cc2ccc(F)cc2)C(=O)c2ccccc21 | > 100 µM | > 100 µM | > 100 µM | > 100 µM | > 100 µM | > 100 µM | > 100 µM |  |  |  |  |  |  |  |  |  |  |  |  |  |
| COc1ccc2c(c1)C=CC1C2CC[C@]2(C)C(NC(=O)/C=C/c3ccc(O)c(O)c3)CCC12 (stereo not given in full) | 53.6 µM | 29.5 µM | 24.7 µM |  | 27.8 µM | 39.1 µM | 32 µM | 19.9 µM | 11.4 µM | 19.6 µM | 56.9 µM | 7.1 µM | 6.28 µM | 20.8 µM | 12.1 µM | 25.9 µM | 7.19 µM | 7.98 µM | 16.2 µM |  |
| CN1CCN(c2nc3cc(F)ccc3n3cccc23)CC1 |  | > 100 µM | 79 µM | 62.4 µM | > 100 µM | > 100 µM | 51.8 µM |  |  |  | > 100 µM |  |  | > 100 µM |  | > 100 µM |  |  |  |  |
| CC1/C(=N/O)CC(c2ccccc2)N(N=O)C1c1ccccc1 (stereo not given) |  | > 100 µM | > 100 µM | > 100 µM | > 100 µM | > 100 µM | > 100 µM |  |  |  | > 100 µM |  |  | > 100 µM |  | > 100 µM |  |  |  |  |
| Cc1c(Cl)cccc1NC(=O)C(=O)c1c(O)c2ccc(O)cc2oc1=O | > 100 µM | > 100 µM | > 100 µM | > 100 µM | > 100 µM |  | > 100 µM |  |  |  |  |  |  |  |  |  |  |  |  |  |
| CC(=O)[O][Hg][c]1s[c]([Hg][O]C(C)=O)[c]([Hg][O]C(C)=O)[c]1[Hg][O]C(C)=O | 35.1 µM | > 100 µM |  | 17.2 µM | > 100 µM | > 100 µM | 5.52 µM | 20.1 µM | 55.8 µM |  |  |  |  |  |  |  | 21.4 µM | 7.54 µM | 1.18 µM | 3.16 µM |
| Oc1ccc(O)c(-n2cccn2)c1-n1cccn1 | > 100 µM | > 100 µM | > 100 µM | > 100 µM | > 100 µM | > 100 µM | > 100 µM |  |  |  |  |  |  |  |  |  |  |  |  |  |
| C=CCO[C@H]1CC[C@@]2(C)C(CC[C@]3(C)C2CC=C2[C@@H]4[C@@H](C)C(C)CC[C@]4(C(=O)O)CCC23C)C1(C)C (stereo not given in full) | 32.4 µM | 32.7 µM | 33.2 µM | 38.4 µM | 29.8 µM |  | 29.5 µM |  |  |  |  |  |  |  |  |  |  |  |  |  |
| Cc1ccc(C)c(NC(=O)C(=O)Nn2c(=S)[nH]c3ccccc3c2=O)c1 | > 100 µM | > 100 µM | > 100 µM | > 100 µM |  | > 100 µM | > 100 µM |  |  |  |  |  |  |  |  |  |  |  |  |  |
| N#C/C(=C1\OC(N)=C(c2ccc(Cl)cc2)C1=O)c1ccc(Cl)cc1 | 31.1 µM | 50.9 µM | 34.1 µM | 34.3 µM | 28 µM | 50 µM | 67.7 µM |  |  |  |  |  |  |  |  |  |  |  |  |  |
| CC/C(C)=C1\CCC(CN(C)C)C1=O (stereo not given) | 37.5 µM | 49.2 µM | 4.36 µM | 39.1 µM | 33.2 µM | 17.1 µM | 38.6 µM |  |  |  |  |  |  |  |  |  |  |  |  |  |
| CCSc1nc(N)c2cnn(CC)c2n1 | 22.8 µM | 20.9 µM | 56.3 µM | 59 µM | 42.6 µM | 6.44 µM | > 100 µM | 3.7 µM | 3.83 µM |  |  | 4.63 µM | 16.6 µM | 79 µM | 2.08 µM | 7.29 µM | 4.59 µM | 2.38 µM | 20.4 µM | 18 µM |
| CN1C/C(=C\c2ccc(C(=O)O)cc2)C(=O)/C(=C/c2ccc(C(=O)O)cc2)C1 | > 100 µM | > 100 µM | > 100 µM | > 100 µM | > 100 µM | > 100 µM | > 100 µM |  |  |  |  |  |  |  |  |  |  |  |  |  |
| COC(=N)CCCl |  | > 100 µM | > 100 µM | > 100 µM | > 100 µM | > 100 µM | > 100 µM |  |  |  | > 100 µM |  |  | > 100 µM |  |  |  |  |  |  |
| C=Cc1cc(OC)c2c(c1)c(=O)oc1c2cc(OC)c2c(O)ccc(C3OC(C(C)O)C(O)C3O)c21 (stereo not given) | 0.00468 µM | 0.414 µM |  | 0.0366 µM | 0.0423 µM |  | 0.0525 µM | 0.00126 µM | 0.0146 µM | 0.00769 µM | 0.0391 µM |  | 0.000944 µM | 0.321 µM | 0.0438 µM | > 1 µM | 0.0155 µM |  | 0.0225 µM | 0.0107 µM |
| O/N=C1\C(=C\c2ccc3c(c2)OCCO3)CCCC1C(NO)c1ccc2c(c1)OCCO2 (stereo not given) | 60 µM | > 100 µM | > 100 µM | 63.7 µM | 39.6 µM | > 100 µM | 32.5 µM |  |  |  |  |  |  |  |  |  |  |  |  |  |
| C/C(=N\Nc1n[nH]c(=S)n1N)c1c(O)cc(C)oc1=O | > 100 µM | > 100 µM | > 100 µM | > 100 µM |  |  | > 100 µM |  |  |  |  |  |  |  |  |  |  |  |  |  |
| Cc1ccc([N+]2=NC(c3ccccc3)=NN(c3ccccc3)C2)cc1 | > 100 µM | > 100 µM |  | > 100 µM | > 100 µM | > 100 µM | > 100 µM |  |  |  |  |  |  |  |  |  |  |  |  |  |
| N#CC(C#N)C(c1ccccc1)c1ccccc1 | > 100 µM | > 100 µM | > 100 µM | > 100 µM | > 100 µM | > 100 µM | > 100 µM |  |  |  |  |  |  |  |  |  |  |  |  |  |
| O=C1CC2OCC=C3CN4CCC5(C(=O)O)C(N1)C2C3CC45 (stereo not given) | > 100 µM | > 100 µM | > 100 µM | > 100 µM | > 100 µM |  | > 100 µM |  |  |  | > 100 µM |  |  | > 100 µM |  | > 100 µM |  |  |  |  |
| CSCC[C@H](NC(=O)[C@@H](N)CC(N)=O)C(=O)N[C@@H](Cc1c[nH]c2ccccc12)C(=O)N[C@@H](CCC(N)=O)C(=O)N[C@@H](CCC(=O)O)C(=O)N[C@H](C(=O)NCC(=O)N[C@@H](CCCCN)C(=O)N[C@H](C)C(=O)O)C(C)C (H-NMWQEVGK[dA]-OH) | > 100 µM | > 100 µM | > 100 µM | > 100 µM | > 100 µM | > 100 µM | > 100 µM |  |  |  |  |  |  | > 100 µM |  | > 100 µM |  |  |  |  |
